# In US8952169B2 (Genentech, Inc., priority 2012, dated 2015):
# Legend:
# hNav1.7 [1] = target: T1, hNav1.7 (Homo sapiens (Human), UniProt Q15858); assay: Tritiated aryl sulfonamide binding to membranes from cells expressing hNav1.7 and the β1 subunit (competitive binding); conditions: membranes with hNav1.7 and β1 subunit; [3H]compound displacement, 18 h, room temperature; read-out: NaV1.7 395 Memb Binding (IC50)
# In short: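 Competitive displacement of 100 μM [3H]-labelled tritiated aryl sulfonamide from hNav1.7/β1 membranes, 18 h at room temperature in 100 mM NaCl, 20 mM Tris HCl pH 7.4. Non-specific binding defined with 1 μM unlabelled compound. Filter-bound radioactivity measured by liquid scintillation counting.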
# hNav1.7 [2] = target: T1, hNav1.7; assay: Patch voltage clamp electrophysiology (PatchXpress), HEK-293 cells, inactivated state block; type: cell-based; conditions: HEK-293 cells, β1 coexpressed; inactivated state, holding −60 mV; read-out: EP_PX 293 hNav1.7 (IC50)
# T1 sequence (Q15858 whole entry, looked up): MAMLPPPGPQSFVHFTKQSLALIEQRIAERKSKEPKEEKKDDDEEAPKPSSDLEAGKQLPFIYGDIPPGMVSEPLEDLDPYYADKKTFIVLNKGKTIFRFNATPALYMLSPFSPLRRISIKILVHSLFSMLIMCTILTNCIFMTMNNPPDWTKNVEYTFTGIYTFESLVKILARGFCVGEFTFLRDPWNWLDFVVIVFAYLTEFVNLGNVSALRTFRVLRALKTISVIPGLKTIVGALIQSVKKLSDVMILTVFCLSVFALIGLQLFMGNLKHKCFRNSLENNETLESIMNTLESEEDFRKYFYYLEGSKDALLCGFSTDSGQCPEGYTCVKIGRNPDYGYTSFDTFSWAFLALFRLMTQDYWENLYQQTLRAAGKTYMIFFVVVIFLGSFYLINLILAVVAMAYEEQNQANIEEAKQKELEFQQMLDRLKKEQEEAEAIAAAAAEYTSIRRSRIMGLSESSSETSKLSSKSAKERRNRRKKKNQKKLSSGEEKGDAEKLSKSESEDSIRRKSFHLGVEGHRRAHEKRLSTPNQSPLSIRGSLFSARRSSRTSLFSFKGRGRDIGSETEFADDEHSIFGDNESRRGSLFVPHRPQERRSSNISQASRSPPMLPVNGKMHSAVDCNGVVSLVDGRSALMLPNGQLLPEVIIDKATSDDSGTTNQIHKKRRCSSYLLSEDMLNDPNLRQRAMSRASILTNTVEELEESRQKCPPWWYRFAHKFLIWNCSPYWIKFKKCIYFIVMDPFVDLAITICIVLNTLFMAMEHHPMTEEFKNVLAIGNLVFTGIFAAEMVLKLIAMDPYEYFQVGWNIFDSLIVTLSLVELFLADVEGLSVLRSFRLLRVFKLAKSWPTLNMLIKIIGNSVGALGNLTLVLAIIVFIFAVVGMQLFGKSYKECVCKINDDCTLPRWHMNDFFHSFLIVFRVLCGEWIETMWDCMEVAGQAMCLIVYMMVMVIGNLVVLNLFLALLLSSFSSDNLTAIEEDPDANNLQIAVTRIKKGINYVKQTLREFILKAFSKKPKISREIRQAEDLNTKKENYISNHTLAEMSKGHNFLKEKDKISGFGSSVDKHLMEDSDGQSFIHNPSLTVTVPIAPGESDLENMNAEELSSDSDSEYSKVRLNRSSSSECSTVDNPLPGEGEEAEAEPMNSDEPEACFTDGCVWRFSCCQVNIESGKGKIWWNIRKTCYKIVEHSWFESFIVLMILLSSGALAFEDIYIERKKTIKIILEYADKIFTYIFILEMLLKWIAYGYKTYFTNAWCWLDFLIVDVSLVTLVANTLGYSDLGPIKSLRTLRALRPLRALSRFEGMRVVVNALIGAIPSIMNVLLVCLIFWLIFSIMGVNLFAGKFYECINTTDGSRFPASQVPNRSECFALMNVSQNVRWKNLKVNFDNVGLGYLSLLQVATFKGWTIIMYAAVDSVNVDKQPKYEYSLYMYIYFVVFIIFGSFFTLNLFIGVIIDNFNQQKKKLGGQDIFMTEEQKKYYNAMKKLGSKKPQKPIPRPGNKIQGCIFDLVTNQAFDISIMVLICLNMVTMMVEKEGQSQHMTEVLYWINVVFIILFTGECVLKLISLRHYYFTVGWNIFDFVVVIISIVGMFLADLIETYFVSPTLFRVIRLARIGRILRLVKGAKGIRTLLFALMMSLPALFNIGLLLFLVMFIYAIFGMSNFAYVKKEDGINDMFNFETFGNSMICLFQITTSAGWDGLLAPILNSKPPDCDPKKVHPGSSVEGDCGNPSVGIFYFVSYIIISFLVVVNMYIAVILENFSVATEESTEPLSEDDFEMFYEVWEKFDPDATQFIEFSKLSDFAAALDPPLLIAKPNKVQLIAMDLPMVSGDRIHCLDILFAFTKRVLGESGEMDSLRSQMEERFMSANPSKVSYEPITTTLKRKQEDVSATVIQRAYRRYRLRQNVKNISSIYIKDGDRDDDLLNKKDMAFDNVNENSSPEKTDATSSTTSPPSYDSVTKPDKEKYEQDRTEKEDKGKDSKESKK
# T1 sequence (Q07699 whole entry partner, looked up): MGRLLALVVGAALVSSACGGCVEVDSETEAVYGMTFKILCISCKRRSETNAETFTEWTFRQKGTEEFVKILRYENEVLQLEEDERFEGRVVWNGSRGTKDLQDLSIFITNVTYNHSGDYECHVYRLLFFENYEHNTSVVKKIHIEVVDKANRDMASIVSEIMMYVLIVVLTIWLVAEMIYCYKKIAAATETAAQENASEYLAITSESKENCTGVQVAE
SMILES,IC50 (hNav1.7 [1]) [nM],IC50 (hNav1.7 [2]) [nM]
CS(=O)(=O)NC(=O)c1cc(Cl)c(OCC23CC4CC(CC(O)(C4)C2)C3)cc1F,10000,2250
O=C(NS(=O)(=O)N1CCC1)c1cc(C2CC2)c(OC2CCC(F)(F)CC2)cc1F,110,270
O=C(NS(=O)(=O)C1CC1)c1cc(C2CC2)c(OC2CCC(F)(F)CC2)cc1F,43,140
O=C(NS(=O)(=O)N1CCC1)c1cc(Cl)c(OC2CCC(F)(F)CC2)cc1F,980,4400
CC1(F)CCC(COc2cc(F)c(C(=O)NS(=O)(=O)N3CCC3)cc2Cl)CC1 (stereo not drawn),270,280
CS(=O)(=O)NC(=O)c1cc(C2CC2)c(OC2CCC3(CC2)CC3)cc1F,21,18
O=C(NS(=O)(=O)N1CCC1)c1cc(C2CC2)c(OC2CCC3(CC2)CC3)cc1F,23,29
CS(=O)(=O)NC(=O)c1cc(C2CC2)c(OCC2CCC3C(C2)C3(F)F)cc1F (stereo not drawn),21,19
COC12CC3CC(C1)C(Oc1cc(F)c(C(=O)NS(C)(=O)=O)cc1Cl)C(C3)C2 (stereo not drawn),730,610
O=C(NS(=O)(=O)N1CCC1)c1cc(C2CC2)c(OC2CCC(Cl)(Cl)CC2)cc1F,44,120
CC1(F)CCC(COc2cc(F)c(C(=O)NS(=O)(=O)N3CCC3)cc2C2CC2)CC1 (stereo not drawn) [listing 1 of 2 here],23,67
O=C(NS(=O)(=O)N1CCC1)c1cc(C2CC2)c(O[C@H]2C3CC4CC2C[C@@](F)(C4)C3)cc1F,21,24
O=C(NS(=O)(=O)N1CCC1)c1cc(C2CC2)c(O[C@H]2C3CC4CC2C[C@@](Cl)(C4)C3)cc1F,10,94
CS(=O)(=O)NC(=O)c1cc(Cl)c(OCC2CC=CCC2)cc1F (stereo not drawn),130,1300
CC1(F)CCC(COc2cc(F)c(C(=O)NS(=O)(=O)N3CCC3)cc2C2CC2)CC1 (stereo not drawn) [listing 2 of 2 here],22,35
CNS(=O)(=O)NC(=O)c1cc(C2CC2)c(OCC2CN(C(c3ccccc3)c3ccccc3)C2)cc1F,34,600

# Now from value to compound:
IC50 (hNav1.7 [1]) [nM],IC50 (hNav1.7 [2]) [nM],SMILES
10,56,O=C(NS(=O)(=O)N1CCC1)c1cc(C2CC2)c(OC2C3CC4CC(C3)CC2C4)cc1F (stereo not drawn)
8,9,O=C(NS(=O)(=O)C1CC1)c1cc(C2CC2)c(OCC2CCC3C(C2)C3(F)F)cc1F (stereo not drawn)
15,34,O=C(NS(=O)(=O)N1CCC1)c1cc(C2CC2)c(OCC2CCC3C(C2)C3(F)F)cc1F (stereo not drawn)
4,24,O=C(NS(=O)(=O)C1CC1)c1cc(C2CC2)c(O[C@H]2C3CC4CC2C[C@@](Cl)(C4)C3)cc1F
7,120,CS(=O)(=O)NC(=O)c1cc(C2CC2)c(OC2CCC3(CCCCC3)CC2)cc1F
4,61,O=C(NS(=O)(=O)C1CC1)c1cc(C2CC2)c(OC2CCC3(CCCCC3)CC2)cc1F
6,53,CC1(C)CCCC(Oc2cc(F)c(C(=O)NS(=O)(=O)C3CC3)cc2C2CC2)C1 (stereo not drawn)
6.3,220,O=C(NS(=O)(=O)N1CCC1)c1cc(C2CC2)c(OC2CCC3(CCCCC3)CC2)cc1F
4,300,O=C(NS(=O)(=O)N1CCC1)c1cc(C2CC2)c(OCC2CCC3(CCC3)CC2)cc1F
9,7,CS(=O)(=O)NC(=O)c1cc(C2CC2)c(O[C@H]2C3CC4CC2C[C@@](Cl)(C4)C3)cc1F
5,340,O=C(NS(=O)(=O)N1CCC1)c1cc(C2CC2(F)F)c(OCC23CC4CC(CC(C4)C2)C3)cc1F (stereo not drawn)
4,140,O=C(NS(=O)(=O)C1CC1)c1cc(C2CC2(F)F)c(OCC23CC4CC(CC(C4)C2)C3)cc1F (stereo not drawn)
20,1200,O=C(NS(=O)(=O)N1CC(F)C1)c1cc(C2CC2)c(O[C@H]2C3CC4CC2C[C@](Cl)(C4)C3)cc1F
9,2,CS(=O)(=O)NC(=O)c1cc(C2CC2)c(OCC2CCC3CC3C2)cc1F (stereo not drawn)
